Laboratory results as given in PubChem BioAssay AID1117359 (Southern Research Institute, 2015).

These compounds were tested on THP-1 viability, CellTiter-Glo luminescence, 72 h (assay: viability loss in THP-1 monocytes – THP-1 cells, cytotoxicity control for Vif-APOBEC3G degradation inhibitor project, dose response (AID 1117359)).
`Oc1ccc(/C=N/NP(=S)(c2ccccc2)c2ccccc2)c(O)c1O` showed a CC50 of 38.3 µM. `O=[N+]([O-])c1c(NCCO)cc(Sc2nc3ccccc3s2)c2nonc12` showed a CC50 of 17.9 µM. In the case of `CCN=c1scc(C)n1/N=C/c1ccc(O)c(O)c1O`, the CC50 is reported as 19.9 µM. For `CCOc1cc(CNc2ccc(O)cc2)ccc1OCc1ccc(Cl)cc1Cl`, the CC50 was 8.81 µM. `Oc1ccc(N=Cc2ccc(O)c(O)c2)cc1` showed a CC50 of 13 µM. With `CSc1nc(N(CCO)CCO)c2sc3nc(-c4ccco4)c4c(c3c2n1)CCC4` the CC50 was 19.8 µM. `CCOC(=O)C(C(=O)OCC)c1cc(Br)c2noc3c2c1C(=O)c1ccccc1-3` gave a CC50 of 9.78 µM. `COC(C(=O)C(O)C(C)O)C1Cc2cc3cc(OC4CC(OC5CC(O)C(O)C(C)O5)C(O)C(C)O4)c(C)c(O)c3c(O)c2C(=O)C1OC1CC(OC2CC(OC3CC(O)C(OC)C(C)O3)C(O)C(C)O2)C(O)C(C)O1` (stereo not drawn) was tested, and the CC50 was less than 0.08 µM.
